Test results from patent publication US20240400555A1 (Initial Therapeutics, Inc., priority 2023, published 2024).
Like-named read-outs stand apart in the source and are kept apart here.

Test system: MV-4-11 cells
Experiment: Cell Viability Assay in MV-4-11 Cells
Type: cell-based
Conditions: Homo sapiens, MV4-11, 72 h
Summary of the method: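 Luminescent ATP read-out (CellTiter-Glo) after 72 h compound treatment of MV-4-11 leukaemia cells (7,000 per well, IMDM plus 10% FBS). Values expressed relative to DMSO control and derived by four-parameter non-linear regression.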

[1] = MV-4-11 cells, 72 h, Cell-Titer Glo, read-out: IC50

| IC50 [1] [nM] | Structure (SMILES) | IC50 [nM] |
| --- | --- | --- |
| 3000 | O=C(c1ccc(Nc2ncc(F)cn2)cc1F)N(c1nccc2cc(F)ccc12)[C@@H]1CCCNC1 [Example 787, (R)-2-fluoro-N-(6-fluoroisoquinolin-1-yl)-4-((5-fluoropyrimidin-2-yl)amino)-N-(piperidin-3-yl)benzamide] | – |
| 32 | O=C(c1ccc(Nc2ncccn2)cc1)N(c1ncccc1Cl)[C@@H]1CCCNC1 [Example 925, (R)—N-(3-chloropyridin-2-yl)-N-(piperidin-3-yl)-4-(pyrimidin-2-ylamino)benzamide] | – |
| > 1000 | Cc1csc2ccnc(N(C(=O)c3ccc(-c4nnn5c4CN(C)CC5)cc3F)[C@@H]3CCCNC3)c12 [Example 923, 2-fluoro-4-(5-methyl-6,7-dihydro-4H-triazolo[1,5-a]pyrazin-3-yl)-N-(3-methylthieno[3,2-c]pyridin-4-yl)-N-[(3R)-3-piperidyl]benzamide] | – |
| 150 | COCCn1cc(-c2ccc(C(=O)N(c3nccc4scc(C)c34)[C@@H]3CCCNC3)cc2)nn1 [Example 639, (R)-4-(1-(2-methoxyethyl)-1H-1,2,3-triazol-4-yl)-N-(3-methylthieno[3,2-c]pyridin-4-yl)-N-(piperidin-3-yl)benzamide] | – |
| 180 | Cc1ccc(F)c2ccnc(N(C(=O)c3ccc(-c4cn(C)nn4)cc3)[C@@H]3CCCNC3)c12 [Example 656, (R)—N-(5-fluoro-8-methylisoquinolin-1-yl)-4-(1-methyl-1H-1,2,3-triazol-4-yl)-N-(piperidin-3-yl)benzamide] | – |
| 110 | Cc1cccc2ccnc(N(C(=O)c3ccc(-c4nnc(CCC#N)s4)cc3F)[C@@H]3CCCNC3)c12 [Example 879, 4-[5-(2-cyanoethyl)-1,3,4-thiadiazol-2-yl]-2-fluoro-N-(8-methyl-1-isoquinolyl)-N-[(3R)-3-piperidyl]benzamide] | – |
| 30 | Cc1cccc2ccnc(N(C(=O)c3ccc(Nc4nccc(N5CCC(O)CC5)n4)cc3F)[C@@H]3CCCNC3)c12 [Example 717, (R)-2-fluoro-4-((4-(4-hydroxypiperidin-1-yl)pyrimidin-2-yl)amino)-N-(8-methylisoquinolin-1-yl)-N-(piperidin-3-yl)benzamide] | – |
| 300 | Cc1cccc2ccnc(N(C(=O)c3ccc(Nc4ncncn4)cc3F)[C@@H]3CCCNC3)c12 [Example 473, (R)-4-((1,3,5-triazin-2-yl)amino)-2-fluoro-N-(8-methylisoquinolin-1-yl)-N-(piperidin-3-yl)benzamide] | – |
| – | CC(C)(O)C#Cc1cc2c(N(C(=O)c3ccc(-n4nnc5cccnc54)cc3F)[C@@H]3CCCNC3)nccc2s1 [Example 376, 2-fluoro-N-[2-(3-hydroxy-3-methyl-but-1-ynyl)thieno[3,2-c]pyridin-4-yl]-N-[(3R)-3-piperidyl]-4-(triazolo[4,5-b]pyridin-3-yl)benzamide] | 680 |
| 160 | COCc1cn(-c2ccc(C(=O)N(c3nccc4scc(C)c34)[C@@H]3CCCNC3)cc2)nn1 [Example 630, (R)-4-(4-(methoxymethyl)-1H-1,2,3-triazol-1-yl)-N-(3-methylthieno[3,2-c]pyridin-4-yl)-N-(piperidin-3-yl)benzamide] | – |
| 150 | C#Cc1ccc2c(N(C(=O)c3ccc(-n4nnc5cccnc54)cc3F)[C@@H]3CCCNC3)nccc2c1 [Example 396, (R)-4-(3H-[1,2,3]triazolo[4,5-b]pyridin-3-yl)-N-(6-ethynylisoquinolin-1-yl)-2-fluoro-N-(piperidin-3-yl)benzamide] | – |
| 820 | Cn1cc(-c2ccc(C(=O)N(c3nccc4cc(F)ccc34)[C@@H]3CCCNC3)cc2)nn1 [Example 805, (R)—N-(6-fluoroisoquinolin-1-yl)-4-(1-methyl-1H-1,2,3-triazol-4-yl)-N-(piperidin-3-yl)benzamide] | – |
| 52 | COCCn1cc(-c2ccc(C(=O)N(c3nccc4cc(Cl)cc(C)c34)[C@@H]3CCCNC3)cn2)nn1 [Example 921, N-(6-chloro-8-methyl-1-isoquinolyl)-6-[1-(2-methoxyethyl)triazol-4-yl]-N-[(3R)-3-piperidyl]pyridine-3-carboxamide] | – |
| 220 | Cc1cc(F)c(F)c2ccnc(N(C(=O)c3ccc(-c4cn(C)nn4)cc3)[C@@H]3CCCNC3)c12 [Example 862, N-(5,6-difluoro-8-methyl-1-isoquinolyl)-4-(1-methyltriazol-4-yl)-N-[(3R)-3-piperidyl]benzamide] | – |
| 1600 | CC(C)NS(=O)(=O)c1ccc(-c2cc3c(N(C(=O)c4ccc(-c5cn(C)nn5)cc4F)[C@@H]4CCCNC4)nccc3s2)cc1 [Example 537, 2-fluoro-N-[2-[4-(isopropylsulfamoyl)phenyl]thieno[3,2-c]pyridin-4-yl]-4-(1-methyltriazol-4-yl)-N-[(3R)-3-piperidyl]benzamide] | – |
| – | O=C(c1ccc(-n2nnc3cccnc32)cc1F)N(c1nccc2cc(C#CCO)ccc12)[C@@H]1CCCNC1 [Example 398, (R)-4-(3H-[1,2,3]triazolo[4,5-b]pyridin-3-yl)-2-fluoro-N-(6-(3-hydroxyprop-1-yn-1-yl)isoquinolin-1-yl)-N-(piperidin-3-yl)benzamide] | 71 |

| IC50 [1] [nM] | Structure (SMILES) | IC50 [nM] |
| --- | --- | --- |
| 85 | Cc1cccnc1N(C(=O)c1ccc(Nc2ncccn2)cc1)[C@@H]1CCCNC1 [Example 924, (R)—N-(3-methylpyridin-2-yl)-N-(piperidin-3-yl)-4-(pyrimidin-2-ylamino)benzamide] | – |
| 70 | CCc1nnc(-c2ccc(C(=O)N(c3nccc4cccc(C)c34)[C@@H]3CCCNC3)cn2)s1 [Example 900, 6-(5-ethyl-1,3,4-thiadiazol-2-yl)-N-(8-methyl-1-isoquinolyl)-N-[(3R)-3-piperidyl] pyridine-3-carboxamide] | – |
| 39 | Cc1cc(C)c2c(N(C(=O)c3ccc(-c4nnc(C)s4)nc3)[C@@H]3CCCNC3)nccc2c1 [Example 648, (R)—N-(6,8-dimethylisoquinolin-1-yl)-6-(5-methyl-1,3,4-thiadiazol-2-yl)-N-(piperidin-3-yl)nicotinamide] | – |
| 200 | CNS(=O)(=O)c1ccc(-c2cc3c(N(C(=O)c4ccc(-c5cn(C)nn5)cc4F)[C@@H]4CCCNC4)nccc3s2)cc1 [Example 534, (R)-2-fluoro-4-(1-methyl-1H-1,2,3-triazol-4-yl)-N-(2-(4-(N-methylsulfamoyl)phenyl)thieno[3,2-c]pyridin-4-yl)-N-(piperidin-3-yl)benzamide] | – |
| 450 | Cn1ccc2ccnc(N(C(=O)c3ccc(-c4cnn5cccnc45)cc3)[C@@H]3CCCNC3)c21 [Example 303, (R)—N-(1-methyl-1H-pyrrolo[2,3-c]pyridin-7-yl)-N-(piperidin-3-yl)-4-(pyrazolo[1,5-a]pyrimidin-3-yl)benzamide] | – |
| 1600 | O=C(c1ccc(-n2nnc3cccnc32)cc1)N(c1ncccc1Cl)[C@@H]1CCCNC1 [Example 305, (R)-4-(3H-[1,2,3]triazolo[4,5-b]pyridin-3-yl)-N-(3-chloropyridin-2-yl)-N-(piperidin-3-yl)benzamide] | – |
| 910 | Cc1nnc(-c2ccc(C(=O)N(c3nccc4sc(-c5ccc(C(N)=O)cc5)cc34)[C@@H]3CCCNC3)c(F)c2)s1 [Example 827, N-[2-(4-carbamoylphenyl)thieno[3,2-c]pyridin-4-yl]-2-fluoro-4-(5-methyl-1,3,4-thiadiazol-2-yl)-N-[(3R)-3-piperidyl]benzamide] | – |
| 46 | COCc1nnc(-c2ccc(C(=O)N(c3nccc4cc(C)cc(C)c34)[C@@H]3CCCNC3)cn2)s1 [Example 896, N-(6,8-dimethyl-1-isoquinolyl)-6-[5-(methoxymethyl)-1,3,4-thiadiazol-2-yl]-N-[(3R)-3-piperidyl] pyridine-3-carboxamide] | – |
| 240 | Cc1cccc2ccnc(N(C(=O)c3ccc(-c4nnc(C5CC5)s4)cc3)[C@@H]3CCCNC3)c12 [Example 790, (R)-4-(5-cyclopropyl-1,3,4-thiadiazol-2-yl)-N-(8-methylisoquinolin-1-yl)-N-(piperidin-3-yl) benzamide] | – |
| 200 | Cc1nnc(-c2ccc(C(=O)N(c3nccc4c(F)ccc(C)c34)[C@@H]3CCCNC3)c(F)c2)o1 [Example 660, (R)-2-fluoro-N-(5-fluoro-8-methylisoquinolin-1-yl)-4-(5-methyl-1,3,4-oxadiazol-2-yl)-N-(piperidin-3-yl)benzamide] | – |
| 340 | Cn1cc(-c2ccc(C(=O)N(c3nccc4sc(C(=O)c5cccnc5)cc34)[C@@H]3CCCNC3)c(F)c2)nn1 [Example 563] | – |
| 2000 | Cc1cccc2ccnc(N(C(=O)N3CCCC4(CCN(C(=O)OCc5ccccc5)CC4)C3)[C@@H]3CCCNC3)c12 [Example 342, benzyl (R)-2-((8-methylisoquinolin-1-yl)(piperidin-3-yl)carbamoyl)-2,9-diazaspiro [5.5]undecane-9-carboxylate] | – |
| > 10000 | O=C(O)/C=C/c1ccc2c(N(C(=O)c3ccc(-n4nnc5cccnc54)cc3F)[C@@H]3CCCNC3)nccc2c1 [Example 406, (R,E)-3-(1-(4-(3H-[1,2,3]triazolo[4,5-b]pyridin-3-yl)-2-fluoro-N-(piperidin-3-yl)benzamido)isoquinolin-6-yl)acrylic acid] | – |
| 1000 | COC(=O)CCC#Cc1cccc(C(=O)N(c2nccc3cccc(C)c23)[C@@H]2CCCNC2)c1 [Example 589, methyl (R)-5-(3-((8-methylisoquinolin-1-yl)(piperidin-3-yl)carbamoyl)phenyl)pent-4-ynoate] | – |
| 230 | CNC(=O)c1ccc2c(N(C(=O)c3ccc(-n4nnc5cccnc54)cc3F)[C@@H]3CCCNC3)nccc2c1 [Example 369, (R)-1-(4-(3H-[1,2,3]triazolo[4,5-b]pyridin-3-yl)-2-fluoro-N-(piperidin-3-yl)benzamido)-N-methylisoquinoline-6-carboxamide] | – |
| 220 | O=C(c1ccc(Nc2nccc(N3CCOCC3)n2)cc1F)N(c1nccc2cc(F)ccc12)[C@@H]1CCCNC1 [Example 560, (R)-2-fluoro-N-(6-fluoroisoquinolin-1-yl)-4-((4-morpholinopyrimidin-2-yl)amino)-N-(piperidin-3-yl)benzamide] | – |
